Biological target: GST-tagged-Wee1 kinase (Homo sapiens, UniProt P30291)
Experiment: Wee1 time-resolved fluorescence equilibrium binding assay (displacement of Oregon Green-labeled ATP-competitive kinase probe)
Description: Wee1 kinase was assayed using a time-resolved fluorescence equilibrium binding assay monitoring displacement of a rapidly reversible Oregon Green-labeled ATP-competitive kinase probe (N-(2-(2-(2-(4-(4-(5-chloro-4-(2-(1-hydroxycyclobutyl)thiazol-5-yl)-1H-pyrrolo[2,3-b]pyridin-2-yl)phenyl)piperazin-1-yl)ethoxy)ethoxy)ethyl)-2′,7′-difluoro-3′,6′-dihydroxy-3-oxo-3H-spiro[isobenzofuran-1,9′-xanthene]-5-carboxamide) by competitive Wee1 inhibitors.

Chain of GST-tagged-Wee1 kinase (P30291 whole entry): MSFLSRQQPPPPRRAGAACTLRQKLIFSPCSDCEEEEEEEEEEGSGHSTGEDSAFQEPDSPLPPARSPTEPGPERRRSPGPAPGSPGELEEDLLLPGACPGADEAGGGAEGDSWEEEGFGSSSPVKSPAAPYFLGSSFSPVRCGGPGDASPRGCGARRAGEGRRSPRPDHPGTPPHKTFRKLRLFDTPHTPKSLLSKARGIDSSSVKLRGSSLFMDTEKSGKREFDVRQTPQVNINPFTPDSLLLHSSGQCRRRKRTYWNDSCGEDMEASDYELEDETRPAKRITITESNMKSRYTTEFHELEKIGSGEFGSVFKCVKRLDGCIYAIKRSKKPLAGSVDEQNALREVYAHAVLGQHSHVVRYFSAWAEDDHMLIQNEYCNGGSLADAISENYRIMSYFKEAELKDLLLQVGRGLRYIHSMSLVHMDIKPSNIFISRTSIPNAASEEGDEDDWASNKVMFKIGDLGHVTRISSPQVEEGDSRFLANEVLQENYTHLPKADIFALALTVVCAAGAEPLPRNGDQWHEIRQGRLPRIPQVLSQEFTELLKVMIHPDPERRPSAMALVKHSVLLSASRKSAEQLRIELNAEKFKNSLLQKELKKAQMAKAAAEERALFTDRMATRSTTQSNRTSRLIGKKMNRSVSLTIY

Row | Structure (SMILES) | Ki
1 | CC(C)n1nc(-c2ccccn2)c2nc(Nc3ccc(N4CCN(C)CC4)cc3)ncc2c1=O [Example 272, 2-{[4-(4-methylpiperazin-1-yl)phenyl]amino}-6-(propan-2-yl)-8-(pyridin-2-yl)pyrimido[4,5-d]pyridazin-5(6H)-one] | 100 nM
2 | CC(C)n1nc(-c2ccncc2)c2nc(Nc3ccc(N4CCN(C)CC4)cc3)ncc2c1=O [Example 273, 2-{[4-(4-methylpiperazin-1-yl)phenyl]amino}-6-(propan-2-yl)-8-(pyridin-4-yl)pyrimido[4,5-d]pyridazin-5(6H)-one] | 11 nM
3 | CC(C)n1nc(-c2ccccn2)c2nc(Nc3ccc4c(c3)CN(C)CC43CC3)ncc2c1=O [Example 274, 2-[(2′-methyl-2′,3′-dihydro-1′H-spiro[cyclopropane-1,4′-isoquinolin]-7′-yl)amino]-6-(propan-2-yl)-8-(pyridin-2-yl)pyrimido[4,5-d]pyridazin-5(6H)-one] | 179 nM
4 | CC(C)n1nc(-c2ccncc2)c2nc(Nc3ccc4c(c3)CN(C)CC43CC3)ncc2c1=O [Example 275, 2-[(2′-methyl-2′,3′-dihydro-1′H-spiro[cyclopropane-1,4′-isoquinolin]-7′-yl)amino]-6-(propan-2-yl)-8-(pyridin-4-yl)pyrimido[4,5-d]pyridazin-5(6H)-one] | 3.2 nM
5 | O=c1c2cnc(Nc3ccc(N4CCNCC4)cc3)nc2c(C2CCC2)nn1-c1c(Cl)cccc1Cl [Example 279, 8-cyclobutyl-6-(2,6-dichlorophenyl)-2-{[4-(piperazin-1-yl)phenyl]amino}pyrimido[4,5-d]pyridazin-5(6H)-one] | 1.2 nM
6 | CN1CCN(c2ccc(Nc3ncc4c(=O)n(C5CCC5)nc(-c5ccncc5)c4n3)cc2)CC1 [Example 282, 6-cyclobutyl-2-{[4-(4-methylpiperazin-1-yl)phenyl]amino}-8-(pyridin-4-yl)pyrimido[4,5-d]pyridazin-5(6H)-one] | 58 nM
7 | CC1(C)CNCc2cc(Nc3ncc4c(=O)n(CCO)nc(-c5ccccn5)c4n3)ccc21 [Example 283, 2-[(4,4-dimethyl-1,2,3,4-tetrahydroisoquinolin-7-yl)amino]-6-(2-hydroxyethyl)-8-(pyridin-2-yl)pyrimido[4,5-d]pyridazin-5(6H)-one] | 30 nM
8 | O=c1c2cnc(Nc3ccc(N4CCNCC4)cc3)nc2c(-c2ccccn2)nn1-c1ccccn1 [Example 285, 2-{[4-(piperazin-1-yl)phenyl]amino}-6,8-di(pyridin-2-yl)pyrimido[4,5-d]pyridazin-5(6H)-one] | 8.4 nM
9 | O=c1c2cnc(Nc3ccc(N4CCNCC4)cc3)nc2c(-c2ccccn2)nn1-c1cccc2ccccc12 [Example 286, 6-(naphthalen-1-yl)-2-{[4-(piperazin-1-yl)phenyl]amino}-8-(pyridin-2-yl)pyrimido[4,5-d]pyridazin-5(6H)-one] | 9.4 nM
10 | CN1Cc2cc(Nc3ncc4c(=O)n(-c5ccccn5)nc(-c5ccccn5)c4n3)ccc2C(C)(C)C1 [Example 287] | 11 nM
11 | CC(O)Cn1nc(-c2ccccn2)c2nc(Nc3ccc4c(c3)CN(C)CC4(C)C)ncc2c1=O (stereo not drawn) [Example 288, 6-(2-hydroxypropyl)-8-(pyridin-2-yl)-2-[(2,4,4-trimethyl-1,2,3,4-tetrahydroisoquinolin-7-yl)amino]pyrimido[4,5-d]pyridazin-5(6H)-one] | 172 nM
12 | CC(O)Cn1nc(-c2ccccn2)c2nc(Nc3ccc(N4CCNCC4)cc3)ncc2c1=O (stereo not drawn) [Example 289, 6-(2-hydroxypropyl)-2-{[4-(piperazin-1-yl)phenyl]amino}-8-(pyridin-2-yl)pyrimido[4,5-d]pyridazin-5(6H)-one] | 81 nM
13 | CC1(C)CNCc2cc(Nc3ncc4c(=O)n(C5CCCCC5)nc(-c5ccccn5)c4n3)ccc21 [Example 294, 6-cyclohexyl-2-[(4,4-dimethyl-1,2,3,4-tetrahydroisoquinolin-7-yl)amino]-8-(pyridin-2-yl)pyrimido[4,5-d]pyridazin-5(6H)-one] | 629 nM
14 | CC(O)Cn1nc(-c2ccccn2)c2nc(Nc3ccc4c(c3)CNCC4(C)C)ncc2c1=O (stereo not drawn) [Example 295, 2-[(4,4-dimethyl-1,2,3,4-tetrahydroisoquinolin-7-yl)amino]-6-(2-hydroxypropyl)-8-(pyridin-2-yl)pyrimido[4,5-d]pyridazin-5(6H)-one] | 501 nM
15 | CN1CCN(c2ccc(Nc3ncc4c(=O)n(-c5c(F)cccc5Cl)nc(-c5ccncn5)c4n3)cc2)CC1 [Example 298, 6-(2-chloro-6-fluorophenyl)-2-{[4-(4-methylpiperazin-1-yl)phenyl]amino}-8-(pyrimidin-4-yl)pyrimido[4,5-d]pyridazin-5(6H)-one] | 1.8 nM
16 | O=c1c2cnc(Nc3ccc(N4CCN(C5CCC5)CC4)cc3)nc2c(-c2ccncc2)nn1-c1c(Cl)cccc1Cl [Example 301, 2-{[4-(4-cyclobutylpiperazin-1-yl)phenyl]amino}-6-(2,6-dichlorophenyl)-8-(pyridin-4-yl)pyrimido[4,5-d]pyridazin-5(6H)-one] | 2.7 nM

Other lines, results leading:

Row | Ki | Structure (SMILES)
17 | 1.1 nM | CN1CCN(c2ccc(Nc3ncc4c(=O)n(-c5c(Cl)cccc5Cl)nc(-c5ccc(Br)cc5)c4n3)cc2)CC1 [Example 276, 8-(4-bromophenyl)-6-(2,6-dichlorophenyl)-2-{[4-(4-methylpiperazin-1-yl)phenyl]amino}pyrimido[4,5-d]pyridazin-5(6H)-one]
18 | 1.2 nM | COC(=O)c1ccc(-c2nn(-c3c(Cl)cccc3Cl)c(=O)c3cnc(Nc4ccc(N5CCN(C)CC5)cc4)nc23)cc1 [Example 277, methyl 4-[6-(2,6-dichlorophenyl)-2-{[4-(4-methylpiperazin-1-yl)phenyl]amino}-5-oxo-5,6-dihydropyrimido[4,5-d]pyridazin-8-yl]benzoate]
19 | 0.83 nM | CN1CCN(c2ccc(Nc3ncc4c(=O)n(-c5c(Cl)cccc5Cl)nc(C5CCC5)c4n3)cc2)CC1 [Example 278, 8-cyclobutyl-6-(2,6-dichlorophenyl)-2-{[4-(4-methylpiperazin-1-yl)phenyl]amino}pyrimido[4,5-d]pyridazin-5(6H)-one]
20 | 0.51 nM | CN1Cc2cc(Nc3ncc4c(=O)n(-c5c(Cl)cccc5Cl)nc(C5CCC5)c4n3)ccc2C2(CC2)C1 [Example 280, 8-cyclobutyl-6-(2,6-dichlorophenyl)-2-[(2′-methyl-2′,3′-dihydro-1′H-spiro[cyclopropane-1,4′-isoquinolin]-7′-yl)amino]pyrimido[4,5-d]pyridazin-5(6H)-one]
21 | 0.53 nM | O=c1c2cnc(Nc3ccc4c(c3)CNCC43CC3)nc2c(C2CCC2)nn1-c1c(Cl)cccc1Cl [Example 281, 8-cyclobutyl-6-(2,6-dichlorophenyl)-2-(2′,3′-dihydro-1′H-spiro[cyclopropane-1,4′-isoquinolin]-7′-ylamino)pyrimido[4,5-d]pyridazin-5(6H)-one]
22 | 0.36 nM | O=c1c2cnc(Nc3ccc(N4CCNCC4)cc3)nc2c(-c2ccccn2)nn1-c1c(Cl)cccc1Cl [Example 284, 6-(2,6-dichlorophenyl)-2-{[4-(piperazin-1-yl)phenyl]amino}-8-(pyridin-2-yl)pyrimido[4,5-d]pyridazin-5(6H)-one]
23 | 0.33 nM | CN1CCN(c2ccc(Nc3ncc4c(=O)n(-c5c(Cl)cccc5Cl)nc(-c5ccc(C(=O)O)cc5)c4n3)cc2)CC1 [Example 290, 4-[6-(2,6-dichlorophenyl)-2-{[4-(4-methylpiperazin-1-yl)phenyl]amino}-5-oxo-5,6-dihydropyrimido[4,5-d]pyridazin-8-yl]benzoic acid]
24 | 0.38 nM | CN1CCN(c2ccc(Nc3ncc4c(=O)n(-c5c(Cl)cccc5Cl)nc(-c5ccc(C(=O)N(C)C)cc5)c4n3)cc2)CC1 [Example 291, 4-[6-(2,6-dichlorophenyl)-2-{[4-(4-methylpiperazin-1-yl)phenyl]amino}-5-oxo-5,6-dihydropyrimido[4,5-d]pyridazin-8-yl]-N,N-dimethylbenzamide]
25 | 0.48 nM | CN1CCN(c2ccc(Nc3ncc4c(=O)n(-c5c(Cl)cccc5Cl)nc(-c5ccc(C(=O)NC6CCC6)cc5)c4n3)cc2)CC1 [Example 292, N-cyclobutyl-4-[6-(2,6-dichlorophenyl)-2-{[4-(4-methylpiperazin-1-yl)phenyl]amino}-5-oxo-5,6-dihydropyrimido[4,5-d]pyridazin-8-yl]benzamide]
26 | 0.25 nM | CNC(=O)c1ccc(-c2nn(-c3c(Cl)cccc3Cl)c(=O)c3cnc(Nc4ccc(N5CCN(C)CC5)cc4)nc23)cc1 [Example 293, 4-[6-(2,6-dichlorophenyl)-2-{[4-(4-methylpiperazin-1-yl)phenyl]amino}-5-oxo-5,6-dihydropyrimido[4,5-d]pyridazin-8-yl]-N-methylbenzamide]
27 | 0.27 nM | CN1CCN(c2ccc(Nc3ncc4c(=O)n(-c5c(F)cccc5Cl)nc(-c5ccncc5)c4n3)cc2)CC1 [Example 296, 6-(2-chloro-6-fluorophenyl)-2-{[4-(4-methylpiperazin-1-yl)phenyl]amino}-8-(pyridin-4-yl)pyrimido[4,5-d]pyridazin-5(6H)-one]
28 | 0.19 nM | O=c1c2cnc(Nc3ccc(N4CCNCC4)cc3)nc2c(-c2ccncc2)nn1-c1c(F)cccc1Cl [Example 297, 6-(2-chloro-6-fluorophenyl)-2-{[4-(piperazin-1-yl)phenyl]amino}-8-(pyridin-4-yl)pyrimido[4,5-d]pyridazin-5(6H)-one]
29 | 0.99 nM | CCOc1cccc(-c2nn(-c3c(F)cccc3Cl)c(=O)c3cnc(Nc4ccc(N5CCN(C)CC5)cc4)nc23)n1 [Example 299, 6-(2-chloro-6-fluorophenyl)-8-(6-ethoxypyridin-2-yl)-2-{[4-(4-methylpiperazin-1-yl)phenyl]amino}pyrimido[4,5-d]pyridazin-5(6H)-one]
30 | 0.12 nM | Cc1nn(-c2c(Cl)cccc2Cl)c(=O)c2cnc(Nc3ccc4c(c3)CNCC43CC3)nc12 [Example 300, 6-(2,6-dichlorophenyl)-2-(2′,3′-dihydro-1′H-spiro[cyclopropane-1,4′-isoquinolin]-7′-ylamino)-8-methylpyrimido[4,5-d]pyridazin-5(6H)-one]
